Results: patent US20220332695A1, “UREA DERIVATIVES AS CB1 ALLOSTERIC MODULATORS” (RTI INTERNATIONAL, priority 2019, published 2022)
≈ marks a conversion by molar mass, not a printed value. Entries after “also recorded” stand apart in the source; their conditions may differ. Where two headings read alike, the source gives them in different places.

Assays:
MDCK-MDR1 cells = assay: Bidirectional MDCK-MDR1 permeability assay; assay type: in vitro ADME
Description: (§1) Permeability Assessment. Bidirectional MDCK-MDR1 permeability assay was performed by Paraza Pharma Inc. (Montreal, Canada). MDCK-mdr1 cells at passage 5 were seeded onto permeable polycarbonate supports in 12-well Costar Transwell plates and allowed to grow and differentiate for 3 days. On day 3, culture medium (DMEM supplemented with 10% FBS) was removed from both sides of the transwell inserts and cells were rinsed with warm HBSS. After the rinse step, the chambers were filled with warm transport buffer (HBSS containing 10 mM HEPES, 0.25% BSA, pH 7.4) and the plates were incubated at 37° C. for 30 min prior to TEER (Trans Epithelial Electric Resistance) measurements.
(§2) The buffer in the donor chamber (apical side for A-to-B assay, basolateral side for B-to-A assay) was removed and replaced with the working solution (10 μM test article in transport buffer). The plates were then placed at 37° C. under light agitation. At designated time points (30, 60 and 90 min), an aliquot of transport buffer from the receiver chamber was removed and replenished with fresh transport buffer. Samples were quenched with ice-cold ACN containing internal standard and then centrifuged to pellet protein. Resulting supernatants are further diluted with 50/50 ACN/H2O (H2O only for Atenolol) and submitted for LC-MS/MS analysis. Reported apparent permeability (Papp) values were calculated from single determination.
(§3) Atenolol and propranolol were tested as low and […] permeability references.
(§4) The apparent permeability (Papp, measured in cm/s) of a compound is determined according to the following formula […]: […]
(§5) where dQ/dt is the net rate of appearance in the receiver compartment; A is the area of the Transwell measured in cm^2 (1.12 cm^2); Ci is the initial concentration of compound added to the donor chamber; and 60 is the conversion factor for minute to second.

hCB1R [1] = target: T1, hCB1R (Homo sapiens, UniProt P21554); assay: [35S]GTPγS binding assay in HEK cells stably expressing human CB1R; assay type: biochemical; design: expressed in transfected cells; host or cells: HEK (HEK293) cells, membranes; conditions: [CP] = 100 nM, mean (95% confidence interval), read-out: hCB1R [35S]GTPγS binding assay IC50
locomotion in rats [2] = assay: Locomotion in rats; conditions: rat, 10 mg/kg i.p.
Description: (§6) Locomotion is presented as total distance (in millimeters (mm)) versus time (in minutes) after administration. The effects of treatment with vehicle is also shown as a control.

[3] = Kinetic solubility assessment; assay type: physicochemical; conditions: phosphate buffer, 2 hours room temperature
Description: The solution was agitated on a VX-2500 multi-tube vortexer (VWR International, Radnor, Pa., United States of America) for 2 hours at room temperature. Following agitation, the sample was filtrated on a glass-fiber filter (1 μm) and the eluate was diluted 400-fold with a mixture of acetonitrile: water (1:1). On each experimental occasion, nicardipine and imipramine were assessed as reference compounds for low and high solubility, respectively. All samples were assessed in triplicate and analyzed by LC-MS/MS using electrospray ionization against standards prepared in the same matrix.

hCB1R [4] = target: T1, hCB1R; assay: Calcium mobilization assay, antagonist mode against CP55,940; assay type: cell-based; design: expressed in transfected cells; host or cells: CHO-RD-HGA16 cells (parental line from Molecular Devices)
Description: Calcium Mobilization Assay: CHO-RD-HGA16 cells (Molecular Devices, San Jose, Calif., United States of America) stably expressing the human CB1 receptor were plated into 96-well black-walled assay plates at 25,000 cells/well in 100 pL of Ham's F12 (supplemented with 10% fetal bovine serum, 100 units of penicillin/streptomycin, and 100 µg/mL Normocin) and incubated overnight at 37° C., 5% CO2. Calcium 5 dye (Molecular Devices, San Jose, Calif., United States of America) was reconstituted according to the manufacturer's instructions. The reconstituted dye was diluted 1:40 in prewarmed (37° C.) assay buffer (1x HBSS, 20 mM HEPES, 2.5 mM probenecid, pH 7.4 at 37° C.). Growth medium was removed, and the cells were gently washed with 100 pL of prewarmed (37° C.) assay buffer. The cells were incubated for 45 min at 37° C., 5% CO2 in 200 pL of the diluted Calcium 5 dye solution. […] Serial dilutions of the test compounds were prepared at 10x the desired final concentration in 2.25% BSA/4.5% DMSO/4.5% EtOH/assay buffer. After the dye loading incubation period, the cells were pretreated with 25 pL of the test compound serial dilutions and incubated for 15 min at 37° C. After the pretreatment incubation period, the plate was read with a FLIPR Tetra (Molecular Devices, San Jose, Calif., United States of America). Calcium-mediated changes in fluorescence were monitored every 1 s over a 90 s time period, with the Tetra adding 25 pL of the CP55,940 EC80 concentration at the 10s time point (excitation/emission: 485/525 nm). Relative fluorescence units (RFU) were plotted against the log of compound concentrations. For agonist screens, the above procedure was followed except that cells were pretreated with 2.25% BSA/4.5% DMSO/4.5% EtOH/assay buffer and the Tetra added single concentration dilutions of the test compounds prepared at 10x the desired final concentration in 0.25% BSA/0.5% DMSO/0.5% EtOH/assay buffer. Test compound RFUs were compared to the CP55,940 Emax RFUs to generate % Emax values.
Data Analysis: For calcium mobilization experiments, data were fit to a three-parameter logistic curve to generate IC50 values (GraphPad Prism 6.0, Graphpad Software, San Diego, Calif., United States of America).

mouse CB1R = target: T2, mouse CB1R (Mus musculus, UniProt P47746); assay: [35S]GTPγS binding assay in mouse cerebellum membranes; assay type: biochemical
T2 construct: membranes (10 μg protein) from either ICR mouse cerebellum mice; from tissue; host or cells: cerebellum membranes of ICR mice
Description: [^35S]GTPγS Binding Assay: For receptor signaling, membranes (10 μg protein) from either ICR mouse cerebellum mice (6-8 weeks old; Enviga
Non-specific binding was determined by adding 30 μM unlabeled GTPyS. Concentration response curves for allosteric modulators were conducted in the presence of CP55,940 (100 nM or 1 μM) to calculate 1050 values.
For [^35S]GTPyS experiments, data were normalized to maximal CP55,940 (100 nM) stimulation in the absence of test compound (i.e., vehicle=100%).
Select compounds were evaluated in the CP55,940-induced [^35S]GTPyS binding assays using mouse cerebellum membrane at two CP55,940 concentrations, 100 nM and 1μM.

hCB1R [5] = target: T1, hCB1R; assay: Real-time BRET CAMYEL cAMP assay in HEK293 cells expressing human CB1; assay type: cell-based; design: expressed in transfected cells; host or cells: HEK293 cells stably transfected with human CB1, transiently transfected with pcDNA3L-His-CAMYEL sensor; conditions: [CP] = 100 nM; forskolin-stimulated cAMP
Description: cAMP Assay: The cAMP assay was performed as previously described. […] Briefly, forskolin (FSK)-stimulated cyclic adenosine monophosphate (cAMP) production was measured in real-time using a transfected bioluminescence resonance energy transfer (BRET) cAMP sensor. The plasmid encodes a cAMP binding domain (Epac1) flanked by yellow fluorescent protein (YFP) and Renilla Luciferase (RLuc) assay, the latter of which can oxidize coelenterazine H and produce a photon as a byproduct. When cAMP is bound to the Epac1 domain, it separates RLuc and YFP so only Rluc emits a photon at a wavelength of 460 nm. When cAMP is not bound, RLuc can excite YFP, emitting light at wavelength 535 nm. A plate reader measures both wavelengths and their ratio, 460/535, is calculated to quantify cAMP levels where increases in the ratio indicate increases in cAMP. Human Embryonic Kidney 293 (HEK293) cells stably transfected with the human cannabinoid type-1 (C131) were maintained at 37° C. at 5% CO2 and seeded in 100 mM dishes for transfection. The next day, cells were given fresh growth media and transfected with 5 pg of pcDNA3L-His-CAMYEL using linear polyethyleneimine (25 kDa, Polysciences, Warrington, Pennsylvania, United States of America) in 1:6 DNA:PEI (ATCC, Manassas, Virginia, United States of America) ratio. The next day, cells were lifted using 1 mM EDTA in PBS and spun down at 200xg for 5 min. The supernatant was removed, and cells were resuspended in growth media and plated on poly-D-lysine (Sigma Aldrich, St. Louis, Missouri, United States of America) coated white 96 well plates at 60,000 cells per well, filling 2 columns of 8 wells each per plate, i.e. 8 samples in duplicate per plate (Perkin Elmer, Waltham, Massachusetts,
United States of America). The following day, media was removed, cells were rinsed with PBS and buffers/reagents/drugs added as following: At 0 min, 175 of stimulation buffer (5 mg/ml bovine serum albumin in HBSS including Ca^2+ and Mg^2+); at 10 min, 25 μL of allosteric modulators added; at 15 min: 25 μL coelenterazine added (5 μM final); at 25 min, 25 μL of forskolin (10 final) with or without CP55,940 (100 nM final) added. […] Ratio of 460/535 is calculated for each time point and plotted across time and area under the curve analysis is conducted for each replicate and averaged by condition/day where each day serves as an independent experiment. Data were calculated as %FSK using the formula [(sample-basal)/(forskolin-basal)×100]. IC50 values were calculated from these normalized concentration-response data using Prism 6 (Graphpad Software, San Diego, Calif., United States of America) using 3 parameter non-linear regression. Data are plotted as mean of at least N=3 independent experiments either normalized to forskolin (concentration response data) or the calculated 460/535 BRET ratio (time course data).

hCB1R [6] = target: T1, hCB1R; assay: Intrinsic activity: basal [35S]GTPγS binding in the absence of CP55,940; assay type: biochemical; conditions: up to 10 μM
[7] = Metabolic stability in rat liver microsomes; assay type: in vitro ADME
Description: Metabolic stability assessment: Compounds were incubated with rat liver microsomes at 37° C. for a total of 45 minutes. The reaction was performed at pH 7.4 in 100 mM potassium phosphate buffer containing 0.5 mg/mL of rat liver microsomal protein. Phase I metabolism was assessed by adding NADPH to a final concentration of 1 mM and collecting samples at time points 0, 5, 15, 30 and 45 minutes. All collected samples were quenched 1:1 with ice-cold stop solution (1 μM labetalol and 1 μM glyburide in acetonitrile) and centrifuged to remove precipitated protein. Resulting supernatants were further diluted 1:4 with acetonitrile:water (1:1). Samples were analyzed by LC/MS/MS and calculations for half-life, and in-vitro clearance were accomplished using Microsoft Excel (2007).

P-gp (MDR1) = assay: Bidirectional MDCK-MDR1 permeability assay; assay type: in vitro ADME; conditions: dog, pH 7.4; MDCK-MDR1, 10 μM test article
Description: as §1, §2, §3, §4, §5

locomotion in rats [8] = conditions: rat, in vivo, ip, 10 mg/kg
Description: as §6

[9] = tested on: cocaine-seeking behavior in rats; assay: Cocaine-induced reinstatement of extinguished cocaine-seeking behavior; assay type: in vivo, male Sprague-Dawley rats; conditions: rat, 10 mg/kg i.p. pretreatment
Description: In both graphs, the effect of treatment with vehicle (unfilled bars) is shown as a control. *p<0.05.
Adult male Sprague-Dawley rats (Harlan, Indianapolis, Ind., United States of America) weighing 280-300 g were used in the study. Animals were housed individually on a 12/12 hr light/dark cycle (behavioral experiments were conducted during the light period) with free access to water and food except during experimental sessions.
The reinstatement procedure has been previously described. See Jing et al., Drug Alcohol Depend. 2014, 143, 251-256; and Thorn et al., Neuropsychopharmacology 2014, 39, 2309-2316. Briefly, rats were surgically implanted with a chronic indwelling jugular catheter. […]
Data analyses: Data are expressed as mean ±S.E.M. Differences in active lever responding between the last extinction session and reinstatement session were determined with paired t tests (within subjects comparison). The effects of compounds 2 on reinstatement were analyzed by a one-way analysis of variance (ANOVA) followed by post hoc Bonferroni's test (between subjects comparison). The effects of compounds 34 on reinstatement was analyzed by Student's t test. […]

T1 sequence (P21554 whole entry): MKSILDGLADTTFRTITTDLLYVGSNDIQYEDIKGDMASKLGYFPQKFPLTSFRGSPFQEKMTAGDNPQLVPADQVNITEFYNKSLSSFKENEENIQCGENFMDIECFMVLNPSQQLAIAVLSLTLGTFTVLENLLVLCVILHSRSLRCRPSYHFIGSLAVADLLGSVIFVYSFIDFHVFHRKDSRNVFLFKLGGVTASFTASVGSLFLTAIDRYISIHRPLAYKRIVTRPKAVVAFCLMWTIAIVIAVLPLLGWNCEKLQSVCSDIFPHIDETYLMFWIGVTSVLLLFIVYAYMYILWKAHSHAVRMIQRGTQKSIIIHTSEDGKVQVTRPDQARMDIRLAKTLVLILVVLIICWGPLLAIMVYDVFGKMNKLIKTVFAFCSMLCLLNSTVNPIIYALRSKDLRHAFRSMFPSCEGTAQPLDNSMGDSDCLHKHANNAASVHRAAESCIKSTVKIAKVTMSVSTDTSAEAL
T2 sequence (P47746 whole entry): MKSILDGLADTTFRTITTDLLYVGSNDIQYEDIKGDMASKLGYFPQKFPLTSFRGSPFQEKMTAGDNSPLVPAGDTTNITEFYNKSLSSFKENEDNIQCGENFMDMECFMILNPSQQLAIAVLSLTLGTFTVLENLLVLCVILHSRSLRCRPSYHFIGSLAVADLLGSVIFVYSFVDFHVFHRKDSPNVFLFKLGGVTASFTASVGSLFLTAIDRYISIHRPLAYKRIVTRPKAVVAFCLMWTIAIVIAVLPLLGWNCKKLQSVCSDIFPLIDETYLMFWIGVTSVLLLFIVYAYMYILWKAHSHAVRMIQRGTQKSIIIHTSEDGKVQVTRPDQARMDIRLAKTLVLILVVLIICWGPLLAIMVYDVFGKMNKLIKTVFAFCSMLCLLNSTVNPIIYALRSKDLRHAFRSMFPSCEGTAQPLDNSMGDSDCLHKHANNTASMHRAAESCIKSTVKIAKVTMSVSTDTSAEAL

Compound | Efflux BA/AB (MDCK-MDR1 cells; MDCK-MDR1) | Papp A to B (MDCK-MDR1 cells; MDCK-MDR1, 10 μM test article) | Papp B to A (MDCK-MDR1 cells; MDCK-MDR1, 10 μM test article) | IC50 (hCB1R [1]) [nM] | effect on locomotion (locomotion in rats [2]) | solubility at 2 h [3] [µM] | IC50 (hCB1R [4]; CHO cells expressing human CB1R, against CP55,940 (100 nM), mean ± SEM, read-out: hCB1R Calcium assay IC50) [nM] | IC50 (mouse CB1R; mouse cerebellum membrane, [CP] = 100 nM, read-out: mCB1R GTPγS IC50) [nM] | IC50 (hCB1R [5]) [nM] | inverse agonism (in words) (hCB1R [6]) | Clearance ([7]; mean ± SD) [µL/min/mg] | Papp A→B at 90 min, 10 µM (P-gp (MDR1)) [×10⁻⁶ cm/s] | Papp B→A at 90 min, 10 µM (P-gp (MDR1)) [×10⁻⁶ cm/s] | effect on locomotion (locomotion in rats [8]) | solubility at 2 h ([3]; aqueous buffer, kinetic from dmso stock) [µM] | IC50 (hCB1R [4]) [nM] | effect on cocaine-induced reinstatement of cocaine-seeking behavior [9] | IC50 (mouse CB1R; Tables 4-6, CP55,940 concentration not stated, mean (95% confidence interval), read-out: mCB1R [35S]GTPγS binding assay IC50) [nM] | half-life ([7]; pH 7.4, NADPH, mean ± SD, read-out: Half-life) [min] | microsomal CLint ([7]; pH 7.4, mean ± SD, read-out: Clearance) [µL/min/mg]
O=C(Nc1ccc(Cl)cc1)Nc1ccc(-c2ccccc2)s1 [Compound 11, 1-(4-Chlorophenyl)-3-(5-phenylthiophen-2-yl)urea] | 0.7 | 1.6 ± 0.1 ×10^−6 cm/s | 1.1 ± 0.4 ×10^−6 cm/s | 524 | significant reduction of locomotion | 1.5 (≈ 0.493 µg/mL) | 7 | 63 | 1760 | some degree of inverse agonism; also recorded: very little inverse agonism | 22.2 ± 6.5 |  |  |  |  |  |  |  |  | 
O=C(NCCc1cccc(Cl)c1)Nc1ccc(Cl)cc1 [Compound 68, 3-(4-Chlorophenyl)1-[2-(3-chlorophenyl)ethyl]urea] |  |  |  |  |  |  |  |  |  |  |  | > 15 | > 15 | did not affect locomotion | < 0.5 | 30 ± 4 | good in vivo efficacy; also recorded: attenuated cocaine-induced reinstatement of cocaine-seeking behavior | 561 | 9.6 | 144 ± 8.4
